# Reference: patent US20160038526A1, “TREATMENT OF PROSTATE CANCER” (THOMAS JEFFERSON UNIVERSITY, priority 2012, published 2016)
# Columns and labels:
# [1] = molecular target: T1, Stat5 (Homo sapiens, UniProt P42229); experiment: Prolactin-induced Stat5 phosphorylation in CWR22Rv1 cells (immunoprecipitation/Western blot); assay type: cell-based; settings: CWR22Rv1 cells, 25, 50 and 100 μM for 2 h, 10 nM Prl 30 minutes
# T1 construct: endogenous in cells; host or cells: CWR22Rv1
# Experimental: (§1) CWR22Rv1 cells were starved for 24 h in serum-free medium, treated N6BAP at 25, 50 and 100 μM concentrations for 2 h, followed by stimulation with 10 nM Prl for 30 minutes. Stat5a and Jak2 were immunoprecipitated with anti-Stat5a or anti-Jak2 pAbs. Immunoprecipitates of CWR22Rv1 cells were blotted with anti-PYStat5, anti-Stat5a/b mAb or anti-PY mAb (for Jak2). Whole cell lysates were immunoblotted with anti-actin pAb for loading control. Because SH2-domain of Stat5 mediates the recruitment of Stat5 to the Prl-receptor-Jak2-complex and Stat5 phosphorylation, N6BAP inhibits Prl-induced phosphorylation of Stat5.
# (§2) The protocol in more detail comprised the following. Cell pellets were solubilized in lysis buffer [10 mM Tris-HCl (pH 7.6), 5 mM EDTA, 50 mM sodium chloride, 30 mM sodium pyrophosphate, 50 mM sodium fluoride, 1 mM sodium orthovanadate, 1% Triton X-100, 1 mM phenylmethylsulfonyl fluoride, 5 μg/mlaprotinin, 1 μg/ml pepstatin A, and 2 μg/ml leupeptin], rotated end-over-end at 4° C. for 60 min, and insoluble material was pelleted at 12,000×g for 30 min at 4° C. The protein concentrations of clarified cell lysates were determined by simplified Bradford method (Bio-Rad Laboratories, Hercules, Calif.). Stat5a, Stat5b and Jak2 were immunoprecipitated from whole cell lysates with anti-Stat5a, anti-Stat5b (4 μl/ml; Millipore, Billerica, Mass.) or anti-Jak2 (Millipore) pAbs. […]
# [2] = molecular target: T2, Jak2 (Homo sapiens, UniProt O60674); experiment: Jak2 phosphorylation in CWR22Rv1 cells (immunoprecipitation/Western blot); assay type: cell-based; settings: CWR22Rv1 cells, 25, 50 and 100 μM for 2 h, 10 nM Prl 30 minutes
# T2 construct: endogenous in cells; host or cells: CWR22Rv1
# T2 sequence (O60674 whole entry): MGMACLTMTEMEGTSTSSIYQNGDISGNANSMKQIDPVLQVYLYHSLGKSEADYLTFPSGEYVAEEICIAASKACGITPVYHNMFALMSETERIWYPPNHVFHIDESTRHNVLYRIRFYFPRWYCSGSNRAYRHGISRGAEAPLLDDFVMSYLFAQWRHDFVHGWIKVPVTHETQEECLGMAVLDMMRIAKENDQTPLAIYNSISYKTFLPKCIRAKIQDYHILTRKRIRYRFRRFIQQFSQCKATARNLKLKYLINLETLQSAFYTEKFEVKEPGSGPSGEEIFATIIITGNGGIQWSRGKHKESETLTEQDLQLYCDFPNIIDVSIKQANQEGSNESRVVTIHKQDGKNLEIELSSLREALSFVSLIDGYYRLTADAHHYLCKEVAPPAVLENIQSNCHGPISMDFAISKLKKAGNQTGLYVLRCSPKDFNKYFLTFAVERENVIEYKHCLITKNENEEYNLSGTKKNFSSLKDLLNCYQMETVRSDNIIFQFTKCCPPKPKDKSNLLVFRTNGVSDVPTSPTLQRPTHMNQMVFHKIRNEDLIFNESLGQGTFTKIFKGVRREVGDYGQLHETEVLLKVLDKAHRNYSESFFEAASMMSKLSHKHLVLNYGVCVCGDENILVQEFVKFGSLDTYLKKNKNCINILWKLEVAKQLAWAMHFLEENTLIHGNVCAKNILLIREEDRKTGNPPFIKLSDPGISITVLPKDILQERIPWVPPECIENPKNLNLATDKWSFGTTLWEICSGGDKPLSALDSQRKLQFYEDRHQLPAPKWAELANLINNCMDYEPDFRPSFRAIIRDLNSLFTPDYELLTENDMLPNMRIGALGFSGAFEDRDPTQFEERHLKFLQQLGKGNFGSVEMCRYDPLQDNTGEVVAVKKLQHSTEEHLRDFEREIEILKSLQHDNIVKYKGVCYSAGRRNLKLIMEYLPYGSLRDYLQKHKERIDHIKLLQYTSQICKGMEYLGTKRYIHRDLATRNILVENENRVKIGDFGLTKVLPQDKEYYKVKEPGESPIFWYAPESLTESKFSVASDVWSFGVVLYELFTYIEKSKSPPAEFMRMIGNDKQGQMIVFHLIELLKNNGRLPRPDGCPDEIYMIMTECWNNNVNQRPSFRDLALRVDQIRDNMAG
# Experimental: as §1, §2
# [3] = tested on: HepG2 (hepatocellular); experiment: Cell viability assay, HepG2; assay type: cell-based
# [4] = tested on: T47D human breast cancer cells; experiment: Cell viability assay, T47D; assay type: cell-based
# Experimental: CWR22Rv1 prostate cancer cells were treated with N6BAP or the control compound C5 (Ctrl) at 25 μM concentration or vehicle for 24 h. Following trypan blue exclusion, the attached viable vs. de-attached dead cells were counted. […] The bars indicate mean±SD of triplicate wells. In another assay, CWR22Rv1, LNCaP and DU145 cells were treated with N6BAP, the control compound C5 (Ctrl) or vehicle at indicated concentrations. The fraction of alive cells was determined by MTS ([…]) metabolic activity assay (CellTiter 96® AQueous Assay kit). The results are shown in FIGS. 9C, 9D and 9E, respectively.
# The procedure of Example 9 was followed, substituting cells of the following solid tumor cell lines for the cells treated in Example 9: A549 human lung cancer cells, CAPAN human pancreatic cancer cells, T47D human breast cancer cells, […], A2058 human melanoma and COS-7 monkey fibroblast cell lines.
# [5] = tested on: Stat5a/b; experiment: Nuclear Stat5a/b immunostaining in CWR22Rv1 xenograft tumors; assay type: in vivo, nude mice; settings: CWR22Rv1 xenograft tumors of Example 10
# Experimental: Nuclear active Stat5a/b or nuclear active Stat3 were analyzed by immunostaining with an anti-Stat5a/b or anti-Stat3 antibody, respectively, and biotin-streptavidin amplified peroxidase antiperoxidase immunodetection of paraffin-embedded sections of the prostate xenograft tumors of Example 10. Anti-Stat5a/b (mAb) (55 ng/ml) (Santa Cruz Biotechnology) was used as the primary antibody and antigen-antibody complexes were detected by appropriate biotinylated goat secondary antibodies (Biogenex Laboratories) followed by streptavidin-horseradish-peroxidase complex, and 3,3′-diaminobenzidine as chromogen and Mayer hematoxylin as counterstain. Three microscopic views of each tumor (ten tumors per each treatment group) were photographed at 20× magnification. Nuclear Stat5 and Stat3 indexes were determined by counting epithelial cells with nuclear Stat5a/b immunostaining-positive cells per total number of epithelial cells per view. The counts were averaged within the tumors in a given treatment group.
# [6] = molecular target: Stat3 (Homo sapiens, UniProt P40763); experiment: IL-6-induced nuclear translocation of Stat3 in DU145 cells (immunofluorescence); assay type: cell-based; set-up: endogenous in cells; host or cells: DU145; settings: 2 hours pretreatment, 10 nmol/L IL-6 30 minutes
# Chain of Stat3 (P40763 whole entry, species assumed): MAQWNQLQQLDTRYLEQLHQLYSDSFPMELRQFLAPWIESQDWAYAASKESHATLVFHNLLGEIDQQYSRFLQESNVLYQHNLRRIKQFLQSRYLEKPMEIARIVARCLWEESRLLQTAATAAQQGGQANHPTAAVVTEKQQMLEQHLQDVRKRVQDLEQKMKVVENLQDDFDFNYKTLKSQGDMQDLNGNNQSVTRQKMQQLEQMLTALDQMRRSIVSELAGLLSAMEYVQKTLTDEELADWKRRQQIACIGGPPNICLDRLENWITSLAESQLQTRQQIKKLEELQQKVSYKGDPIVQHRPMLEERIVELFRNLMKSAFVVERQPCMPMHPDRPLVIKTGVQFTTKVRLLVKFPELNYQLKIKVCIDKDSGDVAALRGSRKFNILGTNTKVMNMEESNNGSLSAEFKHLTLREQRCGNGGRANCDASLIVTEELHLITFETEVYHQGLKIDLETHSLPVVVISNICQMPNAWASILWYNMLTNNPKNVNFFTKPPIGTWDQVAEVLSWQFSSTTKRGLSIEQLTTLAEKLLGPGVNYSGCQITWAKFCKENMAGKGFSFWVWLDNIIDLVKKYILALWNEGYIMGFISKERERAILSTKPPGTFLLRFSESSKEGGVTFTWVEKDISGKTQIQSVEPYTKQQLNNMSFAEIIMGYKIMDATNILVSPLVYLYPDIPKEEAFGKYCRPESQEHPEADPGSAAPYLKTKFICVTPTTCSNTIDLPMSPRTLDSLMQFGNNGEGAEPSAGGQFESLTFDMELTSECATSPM
# Experimental: DU145 prostate cancer cells were pretreated with N6BAP or vehicle (DMSO) for 2 hours and then stimulated with 10 nmol/L IL-6 for 30 minutes. Cells were fixed with 100% methanol for 15 min and subsequently permeabilized with 0.1% Triton X-100 in PBS (pH 7.4). After blocking with 2% bovine serum albumin in PBS, cells were incubated with an antibody specific for Stat3 at 4° C. for 2 hours. Cells were then washed with PBS and incubated with FITC-conjugated secondary antibody (Jackson ImmunoResearch) at room temperature for 1 hour. The images were taken by using an inverted fluorescence microscopy (Carl Zeiss).
# T1 sequence (P42229 whole entry): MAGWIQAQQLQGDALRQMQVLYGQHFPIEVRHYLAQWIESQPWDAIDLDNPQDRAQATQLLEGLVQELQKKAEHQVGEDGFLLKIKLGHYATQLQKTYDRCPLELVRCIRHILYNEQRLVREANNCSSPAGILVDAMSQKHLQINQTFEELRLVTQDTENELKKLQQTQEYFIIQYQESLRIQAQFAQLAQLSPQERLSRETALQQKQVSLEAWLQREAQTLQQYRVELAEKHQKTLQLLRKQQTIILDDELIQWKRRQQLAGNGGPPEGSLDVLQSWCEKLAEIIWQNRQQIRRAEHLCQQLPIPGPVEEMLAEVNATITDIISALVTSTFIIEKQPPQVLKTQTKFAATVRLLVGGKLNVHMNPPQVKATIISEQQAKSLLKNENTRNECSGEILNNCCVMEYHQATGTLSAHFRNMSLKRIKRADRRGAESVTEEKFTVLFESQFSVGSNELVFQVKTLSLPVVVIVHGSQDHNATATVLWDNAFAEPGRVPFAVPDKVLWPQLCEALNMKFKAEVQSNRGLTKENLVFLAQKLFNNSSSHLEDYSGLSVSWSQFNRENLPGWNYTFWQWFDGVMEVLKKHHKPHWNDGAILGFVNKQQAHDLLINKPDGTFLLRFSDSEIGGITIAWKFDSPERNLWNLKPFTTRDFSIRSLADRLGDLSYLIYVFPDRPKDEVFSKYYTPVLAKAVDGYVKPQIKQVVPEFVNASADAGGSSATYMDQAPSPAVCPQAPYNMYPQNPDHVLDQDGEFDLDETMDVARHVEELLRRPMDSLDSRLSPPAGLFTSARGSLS
smiles,measurement,setting,value
"O=P(O)(O)OC[C@H]1O[C@@H](n2cnc3c(NCc4ccccc4)ncnc32)[C@H](O)[C@@H]1O [N6BAP, N^6-benzyladenosine-5′-monophosphate]",Prl-induced phosphorylation of Stat5,[1],inhibits Stat5 phosphorylation
same,phosphorylation of Jak2,[2],does not affect phosphorylation of Jak2
same,cell viability,[3],did not affect the viability
same,cell viability,[4],did not affect the viability
same,nuclear Stat5a/b expression in xenograft tumors,[5],inhibits nuclear Stat5a/b expression
same,nuclear translocation of IL-6-induced Stat3,[6],did not block translocation of Stat3 to the nucleus
